Series [1] can be described thus: In-vivo pharmacokinetic experiments on rats. Also noted: species or system SD rats. The note with it: for clearance / half-life / Cmax / Vd / Tmax / bioavailability: both sexes, SD, plasma; for Vd: read-out: Vss. The method, then: SD rats were used, half male and half female, which were administered with compounds by intravenous injection (3 mg/kg), intraperitoneal injection (10 mg/kg) or gavage (30 mg/kg) at different doses. At different time points after administration, blood was collected into EDTA blood sample collection tubes. Plasma was separated by centrifugation and stored at −20° C. pending analysis.
Standard curve and quality control sample preparation and processing: a compound stock solution was taken and diluted with 50% methanol water to make standard working solutions containing each compound concentration of 20 to 10,000 ng/mL, and 60, 600, 6,000 ng/mL quality control working solutions. 47.5 μL of blank rat plasma was taken, respectively, in which 2.50 μL of the standard curve working solutions and quality control working solutions were added to prepare standard curve samples with each compound concentration of 1.00 to 500.00 ng/mL and quality control samples with concentrations of 3.00, 30.00 and 300.00 ng/mL. 200 μL of acetonitrile (containing 5 ng/mL internal standard verapamil) was added into each sample. After vortex oscillation for 3 minutes, centrifuging was conducted for 15 minutes at 20,000 rcf at 4° C. Supernatants were taken for LC-MS/MS analysis.
Compound blood sample processing: 5 μL of plasma samples were taken. 45 μL of Blank rat plasma was added. 200 μL of Acetonitrile (containing 5 ng/mL internal standard verapamil) was added. After vortex oscillation for 3 minutes, centrifuging was conducted for 15 minutes at 20,000 rcf at 4° C. Supernatants were taken for LC-MS/MS analysis.

For a further series, the system named is taste of SD rats. The series can be described thus: Rat taste test (quinine water / tap water drinking). In kind it is in vivo. The note with it: 10 mg/kg intraperitoneal injection; for Water drinking amount, Tap water: free drinking 15 minutes, amounts measured to the nearest 0.1 mL; for Water drinking amount, Sum: tap plus quinine water; for Water drinking amount, Sum / Water drinking amount, Quinine: 15 minutes, measured to the nearest 0.1 mL; for Water drinking amount, Quinine: water with 0.3 mM quinine hydrochloride. As for the experimental part: Experimental purpose: to observe an effect of title compounds on taste of SD rats.
• 1.1) Animals and grouping: 40 male SD rats, with about 300 grams per rat. […] A bottle of normal drinking water and a bottle of drinking water containing 0.3 mM quinine hydrochloride were placed in each cage at the same time, and left and right positions where the two bottles of water were placed in all animal feeding cages were the same. After the animals were allowed to freely drink water for 15 minutes, drinking amounts of the two bottles of water were measured respectively to the nearest 0.1 mL. • 1.5) Data statistics: drinking amounts of quinine bitter water and tap water and a total water drinking amount thereof as well as a percentage of quinine water in the total water drinking amount were counted respectively. Water drinking amounts of the bitter water of animals in each group were compared. Whether differences between groups were significant was compared by analysis of variance. 2) Experimental Results

For another series, the target named is T1, human P2X4 (Homo sapiens, UniProt Q99571).
T1 construct: expressed in transfected cells; host or cells: HEK293
T1 sequence (Q99571 1-388): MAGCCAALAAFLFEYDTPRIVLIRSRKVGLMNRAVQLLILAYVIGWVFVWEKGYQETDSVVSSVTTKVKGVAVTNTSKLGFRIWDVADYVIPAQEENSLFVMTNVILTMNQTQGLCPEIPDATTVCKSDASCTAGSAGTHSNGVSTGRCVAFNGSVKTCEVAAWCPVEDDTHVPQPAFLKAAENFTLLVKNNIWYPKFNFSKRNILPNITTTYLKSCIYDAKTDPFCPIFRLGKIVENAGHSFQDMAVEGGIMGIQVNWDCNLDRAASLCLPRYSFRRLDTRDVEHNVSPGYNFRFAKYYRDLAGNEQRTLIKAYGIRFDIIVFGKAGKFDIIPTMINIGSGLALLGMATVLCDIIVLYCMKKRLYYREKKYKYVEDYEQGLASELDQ
The series can be described thus: Inhibitory activity against human P2X4 (electrophysiological method). It is filed as cell-based. The note with it: read-out: hP2X4 (IC50).

Another series concerns the target T2, human P2X2/3 (Homo sapiens, UniProt P56373+Q9UBL9).
T2 construct: expressed in transfected cells; host or cells: HEK293
T2 sequence (P56373 1-397): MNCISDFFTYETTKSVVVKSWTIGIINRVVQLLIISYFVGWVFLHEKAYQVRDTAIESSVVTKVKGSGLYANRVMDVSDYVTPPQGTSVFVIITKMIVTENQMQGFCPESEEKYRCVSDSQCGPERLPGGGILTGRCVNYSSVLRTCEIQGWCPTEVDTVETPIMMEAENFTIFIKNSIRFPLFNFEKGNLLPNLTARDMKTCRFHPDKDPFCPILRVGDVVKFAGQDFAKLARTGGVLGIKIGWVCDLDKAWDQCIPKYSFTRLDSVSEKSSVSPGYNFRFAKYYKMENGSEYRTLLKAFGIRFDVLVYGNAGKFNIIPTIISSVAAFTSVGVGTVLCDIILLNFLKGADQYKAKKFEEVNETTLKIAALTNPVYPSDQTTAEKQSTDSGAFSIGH
T2 sequence (Q9UBL9 1-471): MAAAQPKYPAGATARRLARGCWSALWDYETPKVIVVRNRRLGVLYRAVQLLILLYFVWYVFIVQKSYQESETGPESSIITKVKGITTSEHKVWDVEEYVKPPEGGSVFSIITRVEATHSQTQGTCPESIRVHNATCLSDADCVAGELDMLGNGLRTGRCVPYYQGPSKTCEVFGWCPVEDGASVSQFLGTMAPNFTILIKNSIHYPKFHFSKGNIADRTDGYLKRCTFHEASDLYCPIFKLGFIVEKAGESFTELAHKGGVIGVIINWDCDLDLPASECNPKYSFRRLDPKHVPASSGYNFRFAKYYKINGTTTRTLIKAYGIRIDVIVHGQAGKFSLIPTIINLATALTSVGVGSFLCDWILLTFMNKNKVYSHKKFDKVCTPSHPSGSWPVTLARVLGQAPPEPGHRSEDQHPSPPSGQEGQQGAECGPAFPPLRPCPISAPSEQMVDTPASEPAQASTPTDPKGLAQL
The series can be described thus: Inhibitory activity against human P2X2/3 (electrophysiological method). It is filed as cell-based. The note with it: read-out: hP2X2/3 (IC50).

The next series has as its target T3, human P2X3 (Homo sapiens, UniProt P56373).
T3 sequence (P56373 1-397): T2 sequence (P56373 1-397)
The series can be described thus: cell-based.

Where [2] appears, read: iv, Rat PK i.v 3 mg/kg, read-out: Cmax/Co.
Where [3] appears, read: po, Rat PK p.o 30 mg/kg, read-out: Cmax.

Each structure is given as a SMILES string. pIC50: −log10 of the molar value. Where two headings read alike, the source gives them in different places.

Procedure for human P2X3: An HEK293 cell line was used as cells. HEK293 cells were placed in a 37° C. incubator with 5% CO2 for culture. Passage was conducted when the cells grew to a density of 80% to 90%. A culture medium in an original 60 mm culture dish was discarded. After the cells were washed 3 times with a sterilized PBS solution, and the solution was blotted up. […] After the trypsin was blotted up, 3 mL of a cell culture medium was added to resuspend the cells. 0.5 mL of a resuspension solution was taken to be added into a new culture dish, and an total culture solution was supplemented to 5 mL. The culture dish was gently shaken to distribute the cells evenly, and then placed in a 37° C. incubator with 5% CO2 for culture.
First, treated slides were spread in a small 35 mm culture dish. 100 μL of resuspended cells were added, and then a total amount of a culture medium was supplemented to 2 mL. Target genes were transferred into the HEK293 cell line by adopting a calcium transfection method. Small dishes to be transfected were subjected to medium change 1 hour before transfection. 2 mL of a fresh cell culture solution was added. A 1.5 mL EP tube was taken, 200 μL of a 0.25 M CaCl2) solution was added, and 3 μg of plasmids to be transfected were added, and even mixing was conducted to form a DNA-CaCl2 solution. […] A pipette tip was used for mixing while adding. After adding all, gentle blowing and beating were conducted 8 to 10 times. After still standing for 5 minutes, they were added into small dishes. The small dishes were shaken slightly to mix the solution evenly, and the placed in a cell incubator. Culture mediums were replaced after 8 to 10 hours. Electrophysiological experiments were performed 24 to 48 hours after transfection.
Electrophysiological recording electrodes were obtained by two-step pulling by using an electrode puller (PP-10, Narishige). After an internal solution is injected into the electrodes, a water inlet resistance is 3 to 5 MΩ. During the experiment, a high potassium salt internal solution containing nystatin (K2SO4 of 75 mM, KCl of 120 mM, MgSO4 of 5 mM, HEPES of 10 mM, adjusting pH to 7.2 with Tris-base, and used after filtration) was used as an electrode internal solution. After the cells were sealed by the electrodes, there was no need to further break cell membranes in a sucked manner, but the cell membranes were bored through the perforation of the nystatin to the cell membranes, to form a hole channel. […] A clamping voltage was −60 mV, a sampling frequency was 10 kHz, and filtering was conducted at 2 kHz.
A working concentration of a P2X3 receptor agonist ATP was 1 μM, and an interval time between two times of ATP administrations was 10 minutes.

By clearance is commonly meant the rate of elimination divided by the concentration. Read a low clearance as inefficient removal. By half-life is commonly meant how long it takes for the measured level to halve. Usually Tmax stands for the time from dosing to the highest level. As a reminder, the bioavailability is dose-corrected exposure relative to a reference, in per cent. Low readings indicate poor availability, high ones good availability. Regarding `CCOC(=O)N(C)[C@H]1CN(C(=O)N[C@H](C)c2cnc(C(F)(F)F)nc2)N=C1c1ccc(C)cc1` [Compound 4, (S)-4-(N-methyl-N-ethoxycarbonylamino)-3-(4-methylphenyl)-N-((R)-1-(2-(trifluoromethyl)pyrimidin-5-yl)ethyl)-4,5-dihydro-1H-pyrazol-1-carboxamide], in series [1] (Rat PK i.v 3 mg/kg), the “ACU” value is 427.84 kg·ng·h/mL/mg. The “ACU” value in series [1] (Rat PK p.o 30 mg/kg) was 367.68 kg·ng·h/mL/mg. For the same compound, in series [1] (iv, Rat PK i.v 3 mg/kg), the clearance is 39.2 mL/min/kg, the half-life was 0.6 h and the Vd was 2.05 L/kg. In series [1] (setting [2]), the Cmax is 1750 ng/mL. Further, in series [1] (po, Rat PK p.o 30 mg/kg), the Tmax is 1.8 h, the bioavailability was determined as 86% and the half-life was 2.23 h. The Cmax in series [1] (setting [3]) stood at 4950 ng/mL. Besides, in the series with taste of SD rats, the “Water drinking amount, Tap water” value was found to be 11.84; the “Water drinking amount, Sum” value worked out at 13.87; the “Water drinking amount, Quinine” value came out at 2.03.

`Cc1ccc(C2=NN(C(=O)N[C@H](C)c3ccc(C(F)(F)F)nc3)C[C@@H]2N2CCOC2=O)cc1` [Compound 22]: in series [1] (Rat PK i.v 3 mg/kg), the “ACU” value came out at 275.63 kg·ng·h/mL/mg. In addition, the “ACU” value in series [1] (Rat PK p.o 30 mg/kg) was determined as 766 kg·ng·h/mL/mg. For the same compound, in series [1] (iv, Rat PK i.v 3 mg/kg), the clearance is 26.5 mL/min/kg, the half-life is 1.31 h and the Vd stood at 2.8 L/kg. The Cmax in series [1] (setting [2]) was found to be 2210 ng/mL. In series [1] (po, Rat PK p.o 30 mg/kg), the Tmax came out at 0.92 h, the bioavailability amounted to 36% and the half-life was 2.71 h. Moreover, the Cmax in series [1] (setting [3]) stood at 1450 ng/mL. For the same compound, the pIC50 at human P2X4 is below 4.70. Besides, the pIC50 at human P2X2/3 was 5.62. Also, in the series on taste of SD rats, the “Water drinking amount, Tap water” value came out at 12.26; the “Water drinking amount, Sum” value stood at 14.13; the “Water drinking amount, Quinine” value is listed as 1.87. The compound further had a pIC50 against human P2X3 of 7.25.

These data come from patent publication US12668589B2, “N-formamidopyrazoline derivative as P2X3 receptor antagonist and use thereof” (HANGZHOU WESTAN PHARMACEUTICAL TECHNOLOGY CO., LTD, priority 2020, dated 2026).
